# In ChEMBL document CHEMBL4507301 (2021):
# What was measured:
# [1] = target: Dual specificity protein kinase CLK3 (Homo sapiens) (UniProt P49761); conditions: Compound concentration 1000.0 nM
# [2] = target: Wee1-like protein kinase 2 (Homo sapiens) (UniProt P0C1S8); conditions: Compound concentration 1000.0 nM
# [3] = target: STE20/SPS1-related proline-alanine-rich protein kinase (Homo sapiens) (UniProt Q9UEW8); conditions: Compound concentration 1000.0 nM
# [4] = target: cAMP-dependent protein kinase catalytic subunit beta (Homo sapiens) (UniProt P22694); conditions: Compound concentration 1000.0 nM
# [5] = target: Serine/threonine-protein kinase N1 (Homo sapiens) (UniProt Q16512); conditions: Compound concentration 1000.0 nM
# [6] = target: 5-hydroxytryptamine receptor 2C (Homo sapiens) (UniProt P28335); conditions: Compound concentration 10.0 uM
# [7] = target: Casein kinase I isoform alpha-like (Homo sapiens) (UniProt Q8N752); conditions: Compound concentration 1000.0 nM
# [8] = test system: Receptor-type tyrosine-protein kinase FLT3 (Homo sapiens), P36888 [D835Y]; conditions: Compound concentration 1000.0 nM
# [9] = target: Serine/threonine-protein kinase Nek3 (Homo sapiens) (UniProt P51956); conditions: Compound concentration 1000.0 nM
# [10] = target: Serine/threonine-protein kinase Nek1 (Homo sapiens) (UniProt Q96PY6); conditions: Compound concentration 1000.0 nM
# [11] = test system: Mast/stem cell growth factor receptor Kit (Homo sapiens), P10721 [V559D]; conditions: Compound concentration 1000.0 nM
# [12] = target: Mast/stem cell growth factor receptor Kit (Homo sapiens) (UniProt P10721); conditions: Compound concentration 1000.0 nM
# [13] = target: Serine/threonine-protein kinase SIK2 (Homo sapiens) (UniProt Q9H0K1); conditions: Compound concentration 1000.0 nM
# [14] = target: Tyrosine-protein kinase JAK1 (Homo sapiens) (UniProt P23458); conditions: Compound concentration 1000.0 nM
# [15] = target: 5-hydroxytryptamine receptor 1D (Homo sapiens) (UniProt P28221); conditions: Compound concentration 10.0 uM
# [16] = target: TGF-beta receptor type-2 (Homo sapiens) (UniProt P37173); conditions: Compound concentration 1000.0 nM
# [17] = target: Dual specificity protein kinase CLK4 (Homo sapiens) (UniProt Q9HAZ1); conditions: Compound concentration 1000.0 nM
# [18] = target: Ribosomal protein S6 kinase alpha-1 (Homo sapiens) (UniProt Q15418); conditions: Compound concentration 1000.0 nM
# [19] = target: Ephrin type-A receptor 6 (Homo sapiens) (UniProt Q9UF33); conditions: Compound concentration 1000.0 nM
# [20] = target: Myosin light chain kinase family member 4 (Homo sapiens) (UniProt Q86YV6); conditions: Compound concentration 1000.0 nM
# [21] = test system: Epidermal growth factor receptor (Homo sapiens), P00533 [UNDEFINED MUTATION]; conditions: Compound concentration 1000.0 nM
# [22] = target: Dual specificity mitogen-activated protein kinase kinase 7 (Homo sapiens) (UniProt O14733); conditions: Compound concentration 1000.0 nM
# [23] = target: Dual specificity protein kinase TTK (Homo sapiens) (UniProt P33981); conditions: Compound concentration 1000.0 nM
# [24] = target: Ribosomal protein S6 kinase alpha-5 (Homo sapiens) (UniProt O75582); conditions: Compound concentration 1000.0 nM
# [25] = target: Phosphatidylinositol 4-phosphate 5-kinase type-1 alpha (Homo sapiens) (UniProt Q99755); conditions: Compound concentration 1000.0 nM
# [26] = target: Cyclin-dependent kinase 16 (Homo sapiens) (UniProt Q00536); conditions: Compound concentration 1000.0 nM
# [27] = test system: Receptor-type tyrosine-protein kinase FLT3 (Homo sapiens), P36888 [UNDEFINED MUTATION]; conditions: Compound concentration 1000.0 nM
# [28] = test system: Receptor-type tyrosine-protein kinase FLT3 (Homo sapiens), P36888 [R834Q]; conditions: Compound concentration 1000.0 nM
# [29] = target: Serine/threonine-protein kinase SBK1 (Homo sapiens) (UniProt Q52WX2); conditions: Compound concentration 1000.0 nM
# [30] = target: 1-phosphatidylinositol 3-phosphate 5-kinase (Homo sapiens) (UniProt Q9Y2I7); conditions: Compound concentration 1000.0 nM
# [31] = test system: Receptor-type tyrosine-protein kinase FLT3 (Homo sapiens), P36888 [K663Q]; conditions: Compound concentration 1000.0 nM
# [32] = target: Cyclin-dependent kinase 17 (Homo sapiens) (UniProt Q00537); conditions: Compound concentration 1000.0 nM
# [33] = test system: Receptor-type tyrosine-protein kinase FLT3 (Homo sapiens), P36888 [N841I]; conditions: Compound concentration 1000.0 nM
# [34] = target: Protein kinase C eta type (Homo sapiens) (UniProt P24723); conditions: Compound concentration 1000.0 nM
# [35] = test system: Hepatocyte growth factor receptor (Homo sapiens), P08581 [Y1235D]; conditions: Compound concentration 1000.0 nM
# [36] = test system: Tyrosine-protein kinase ABL1 (Homo sapiens), P00519 [T315I]; conditions: Compound concentration 1000.0 nM
# [37] = target: Serine/threonine-protein kinase D2 (Homo sapiens) (UniProt Q9BZL6); conditions: Compound concentration 1000.0 nM
# [38] = target: 5-hydroxytryptamine receptor 1B (Homo sapiens) (UniProt P28222); conditions: Compound concentration 10.0 uM
# [39] = target: Rho-associated protein kinase 2 (Homo sapiens) (UniProt O75116); conditions: Compound concentration 1000.0 nM
# [40] = target: Leukocyte tyrosine kinase receptor (Homo sapiens) (UniProt P29376); conditions: Compound concentration 1000.0 nM
# [41] = target: Mitogen-activated protein kinase kinase kinase 19 (Homo sapiens) (UniProt Q56UN5); conditions: Compound concentration 1000.0 nM
# [42] = test system: Mast/stem cell growth factor receptor Kit (Homo sapiens), P10721 [L576P]; conditions: Compound concentration 1000.0 nM
# [43] = target: GABA-A receptor; anion channel (Rattus norvegicus) (UniProt O09028+P15431+P18506+P18508+P19969+P20236+P23574+P23576+P28471+P28473+P30191+P62813+P63079+P63138+Q91ZM7+Q9ES14); conditions: Compound concentration 10.0 uM
# Ribosomal protein S6 kinase alpha-1 (Homo sapiens), sequence (Q15418 whole entry): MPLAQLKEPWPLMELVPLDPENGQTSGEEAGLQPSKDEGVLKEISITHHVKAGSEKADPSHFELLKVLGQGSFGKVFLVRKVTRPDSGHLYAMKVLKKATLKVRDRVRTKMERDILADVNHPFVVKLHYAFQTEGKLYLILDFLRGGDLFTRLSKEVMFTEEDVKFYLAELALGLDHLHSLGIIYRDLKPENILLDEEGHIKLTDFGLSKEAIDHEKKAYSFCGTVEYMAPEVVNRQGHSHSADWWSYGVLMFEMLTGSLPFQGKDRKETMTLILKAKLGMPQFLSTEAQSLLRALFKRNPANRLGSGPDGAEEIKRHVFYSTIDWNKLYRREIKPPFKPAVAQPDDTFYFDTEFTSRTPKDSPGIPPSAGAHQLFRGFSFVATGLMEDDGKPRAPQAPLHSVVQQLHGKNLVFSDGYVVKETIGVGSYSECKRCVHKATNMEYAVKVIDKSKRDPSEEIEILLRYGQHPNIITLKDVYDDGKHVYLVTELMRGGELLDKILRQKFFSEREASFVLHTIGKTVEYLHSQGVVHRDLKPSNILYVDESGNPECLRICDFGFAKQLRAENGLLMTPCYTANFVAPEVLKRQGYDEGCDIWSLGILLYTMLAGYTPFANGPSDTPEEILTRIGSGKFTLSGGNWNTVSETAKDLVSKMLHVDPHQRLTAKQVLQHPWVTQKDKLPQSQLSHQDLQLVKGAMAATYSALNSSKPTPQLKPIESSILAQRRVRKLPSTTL
# Cyclin-dependent kinase 17 (Homo sapiens), sequence (Q00537 whole entry, looked up): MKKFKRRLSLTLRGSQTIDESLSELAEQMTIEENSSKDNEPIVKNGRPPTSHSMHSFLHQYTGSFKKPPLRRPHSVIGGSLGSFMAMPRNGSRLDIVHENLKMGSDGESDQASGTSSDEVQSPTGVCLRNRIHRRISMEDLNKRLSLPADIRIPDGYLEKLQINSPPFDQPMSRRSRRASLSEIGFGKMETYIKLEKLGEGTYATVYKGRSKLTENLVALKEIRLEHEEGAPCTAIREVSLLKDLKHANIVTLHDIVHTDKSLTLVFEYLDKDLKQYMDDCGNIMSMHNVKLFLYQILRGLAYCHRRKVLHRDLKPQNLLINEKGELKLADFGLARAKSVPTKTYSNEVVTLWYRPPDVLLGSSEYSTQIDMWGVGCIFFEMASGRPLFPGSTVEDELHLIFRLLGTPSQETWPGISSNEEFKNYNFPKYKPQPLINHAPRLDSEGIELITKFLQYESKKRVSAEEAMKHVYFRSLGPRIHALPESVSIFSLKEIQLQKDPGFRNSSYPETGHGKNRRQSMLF
# Myosin light chain kinase family member 4 (Homo sapiens), sequence (Q86YV6 whole entry): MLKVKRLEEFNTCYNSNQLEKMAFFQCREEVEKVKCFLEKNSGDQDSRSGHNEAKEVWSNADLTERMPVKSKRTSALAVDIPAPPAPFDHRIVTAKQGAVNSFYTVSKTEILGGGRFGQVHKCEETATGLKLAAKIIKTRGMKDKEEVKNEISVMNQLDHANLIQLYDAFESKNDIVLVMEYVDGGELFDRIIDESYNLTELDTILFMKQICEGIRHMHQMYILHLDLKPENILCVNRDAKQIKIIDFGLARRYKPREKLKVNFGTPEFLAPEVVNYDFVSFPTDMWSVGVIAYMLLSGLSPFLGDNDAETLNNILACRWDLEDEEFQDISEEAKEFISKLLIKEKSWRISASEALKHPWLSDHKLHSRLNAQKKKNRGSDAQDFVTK
# Serine/threonine-protein kinase Nek3 (Homo sapiens), sequence (P51956 whole entry): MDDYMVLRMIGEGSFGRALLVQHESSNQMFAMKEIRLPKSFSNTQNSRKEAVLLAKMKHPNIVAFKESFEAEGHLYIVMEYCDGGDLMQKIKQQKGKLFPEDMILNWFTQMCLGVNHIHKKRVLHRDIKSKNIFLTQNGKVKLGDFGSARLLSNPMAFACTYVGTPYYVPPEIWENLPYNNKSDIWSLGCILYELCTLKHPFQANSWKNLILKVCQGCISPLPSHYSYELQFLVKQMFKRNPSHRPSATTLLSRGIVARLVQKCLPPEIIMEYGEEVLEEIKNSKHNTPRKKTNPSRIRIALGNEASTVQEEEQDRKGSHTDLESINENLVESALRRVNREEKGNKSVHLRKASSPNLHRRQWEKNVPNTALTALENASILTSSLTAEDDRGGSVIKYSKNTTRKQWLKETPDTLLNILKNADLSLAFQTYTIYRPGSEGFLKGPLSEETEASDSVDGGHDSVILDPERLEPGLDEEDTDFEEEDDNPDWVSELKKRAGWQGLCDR
# Serine/threonine-protein kinase Nek1 (Homo sapiens), sequence (Q96PY6 whole entry): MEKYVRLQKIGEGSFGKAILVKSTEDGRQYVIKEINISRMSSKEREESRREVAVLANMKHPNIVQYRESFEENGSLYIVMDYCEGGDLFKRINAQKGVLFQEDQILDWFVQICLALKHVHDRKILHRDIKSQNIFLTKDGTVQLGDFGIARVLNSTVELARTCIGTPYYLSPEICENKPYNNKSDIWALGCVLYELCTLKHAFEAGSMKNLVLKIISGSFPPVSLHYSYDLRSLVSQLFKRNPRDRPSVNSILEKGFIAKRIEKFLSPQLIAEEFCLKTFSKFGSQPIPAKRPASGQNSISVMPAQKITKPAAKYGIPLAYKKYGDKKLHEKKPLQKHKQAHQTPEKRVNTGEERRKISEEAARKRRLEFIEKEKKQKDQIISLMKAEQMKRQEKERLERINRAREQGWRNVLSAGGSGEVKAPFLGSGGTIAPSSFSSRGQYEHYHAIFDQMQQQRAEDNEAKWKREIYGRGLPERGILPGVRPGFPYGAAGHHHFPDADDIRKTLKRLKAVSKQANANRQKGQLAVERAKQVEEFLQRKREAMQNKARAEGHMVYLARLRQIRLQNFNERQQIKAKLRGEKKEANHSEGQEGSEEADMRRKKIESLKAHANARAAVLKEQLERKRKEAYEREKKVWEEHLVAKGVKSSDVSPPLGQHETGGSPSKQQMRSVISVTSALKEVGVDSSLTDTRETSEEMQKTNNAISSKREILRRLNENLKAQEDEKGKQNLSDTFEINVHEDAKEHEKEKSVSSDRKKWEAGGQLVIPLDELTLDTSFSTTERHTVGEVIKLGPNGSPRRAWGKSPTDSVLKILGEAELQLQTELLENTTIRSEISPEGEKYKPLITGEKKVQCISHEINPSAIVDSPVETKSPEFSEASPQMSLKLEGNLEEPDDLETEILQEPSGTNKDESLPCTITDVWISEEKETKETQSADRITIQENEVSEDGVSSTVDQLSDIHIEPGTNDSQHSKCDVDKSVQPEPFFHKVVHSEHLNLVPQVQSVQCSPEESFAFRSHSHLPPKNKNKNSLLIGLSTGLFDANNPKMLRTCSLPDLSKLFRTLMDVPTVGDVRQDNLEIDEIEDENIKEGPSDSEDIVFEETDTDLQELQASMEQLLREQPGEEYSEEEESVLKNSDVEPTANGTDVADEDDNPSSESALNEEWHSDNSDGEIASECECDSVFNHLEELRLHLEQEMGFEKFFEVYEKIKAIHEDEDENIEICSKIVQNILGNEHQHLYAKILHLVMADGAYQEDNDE
# Leukocyte tyrosine kinase receptor (Homo sapiens), sequence (P29376 whole entry): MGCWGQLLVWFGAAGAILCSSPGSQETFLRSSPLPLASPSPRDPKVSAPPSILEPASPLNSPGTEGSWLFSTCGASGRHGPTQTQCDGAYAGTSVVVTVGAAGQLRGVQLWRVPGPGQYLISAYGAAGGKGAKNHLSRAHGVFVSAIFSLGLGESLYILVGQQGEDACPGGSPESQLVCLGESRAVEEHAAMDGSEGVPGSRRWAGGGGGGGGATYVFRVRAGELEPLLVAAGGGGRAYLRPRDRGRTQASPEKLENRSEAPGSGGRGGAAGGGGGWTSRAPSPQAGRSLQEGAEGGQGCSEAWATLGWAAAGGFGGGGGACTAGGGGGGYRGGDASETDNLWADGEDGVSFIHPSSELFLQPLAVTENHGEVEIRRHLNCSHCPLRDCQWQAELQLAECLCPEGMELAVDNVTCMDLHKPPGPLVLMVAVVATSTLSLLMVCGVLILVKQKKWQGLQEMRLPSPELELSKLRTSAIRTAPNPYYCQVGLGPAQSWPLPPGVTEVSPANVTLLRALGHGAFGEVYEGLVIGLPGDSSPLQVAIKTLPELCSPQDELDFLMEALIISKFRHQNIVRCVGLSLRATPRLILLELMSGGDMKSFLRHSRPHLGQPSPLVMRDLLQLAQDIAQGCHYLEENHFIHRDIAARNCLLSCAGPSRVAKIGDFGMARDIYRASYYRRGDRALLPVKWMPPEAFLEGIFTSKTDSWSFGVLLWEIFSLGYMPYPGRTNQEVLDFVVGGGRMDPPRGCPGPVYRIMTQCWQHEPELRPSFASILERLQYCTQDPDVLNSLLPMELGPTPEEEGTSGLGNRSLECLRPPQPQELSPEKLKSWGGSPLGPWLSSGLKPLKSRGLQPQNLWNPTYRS
# TGF-beta receptor type-2 (Homo sapiens), sequence (P37173 whole entry): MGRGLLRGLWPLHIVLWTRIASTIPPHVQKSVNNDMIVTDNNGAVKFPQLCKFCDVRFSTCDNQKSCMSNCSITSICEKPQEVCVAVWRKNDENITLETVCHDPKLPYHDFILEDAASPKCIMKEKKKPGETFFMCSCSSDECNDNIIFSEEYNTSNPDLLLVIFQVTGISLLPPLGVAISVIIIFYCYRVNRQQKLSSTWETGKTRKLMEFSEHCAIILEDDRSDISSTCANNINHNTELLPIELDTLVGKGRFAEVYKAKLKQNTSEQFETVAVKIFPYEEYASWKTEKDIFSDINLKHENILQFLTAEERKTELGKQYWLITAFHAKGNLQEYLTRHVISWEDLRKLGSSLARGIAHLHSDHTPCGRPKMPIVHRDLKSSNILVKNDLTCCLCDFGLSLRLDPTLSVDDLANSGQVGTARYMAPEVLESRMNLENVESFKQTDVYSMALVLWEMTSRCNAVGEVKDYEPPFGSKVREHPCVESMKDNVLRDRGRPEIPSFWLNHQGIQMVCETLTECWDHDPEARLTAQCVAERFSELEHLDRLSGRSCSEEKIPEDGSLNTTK
compound,measurement,setting,value
C[C@H](c1cccc(C#N)c1)n1cc(Cl)cc(C(N)=O)c1=N [(R)-9s],residual activity,[1],100%
same,residual activity,[2],97%
same,residual activity,[3],100%
same,residual activity,[4],98%
same,residual activity,[5],65%
same,inhibition,[6],9.56%
same,residual activity,[7],92%
same,residual activity,[8],96%
same,residual activity,[9],66%
same,residual activity,[10],100%
same,residual activity,[11],83%
same,residual activity,[12],98%
same,residual activity,[13],100%
same,residual activity,[14],57%
same,inhibition,[15],34.1%
same,residual activity,[16],100%
same,residual activity,[17],100%
same,residual activity,[18],100%
same,residual activity,[19],86%
same,residual activity,[20],100%
same,residual activity,[21],78%
same,residual activity,[22],72%
same,residual activity,[23],66%
same,residual activity,[24],92%
same,residual activity,[25],100%
same,residual activity,[26],83%
same,residual activity,[27],100%
same,residual activity,[28],100%
same,residual activity,[29],83%
same,residual activity,[30],91%
same,residual activity,[31],100%
same,residual activity,[32],91%
same,residual activity,[33],97%
same,residual activity,[34],100%
same,residual activity,[35],100%
same,residual activity,[36],92%
same,residual activity,[37],58%
same,inhibition,[38],9.16%
same,residual activity,[39],94%
same,residual activity,[40],99%
same,residual activity,[41],76%
same,residual activity,[42],93%
same,inhibition,[43],1.07%
C[C@@H](c1cccc(C#N)c1)n1cc(Cl)cc(C(N)=O)c1=N [(S)-9s],residual activity,[1],100%
same,residual activity,[2],77%
same,residual activity,[3],100%
same,residual activity,[4],100%
same,residual activity,[5],83%
same,inhibition,[6],16.8%
same,residual activity,[7],82%
same,residual activity,[8],97%
same,residual activity,[9],44%
same,residual activity,[10],100%
same,residual activity,[11],93%
same,residual activity,[12],78%
same,residual activity,[13],100%
same,residual activity,[14],94%
same,inhibition,[15],3.77%
same,residual activity,[16],100%
same,residual activity,[17],100%
same,residual activity,[18],100%
same,residual activity,[19],91%
same,residual activity,[20],100%
same,residual activity,[21],88%
same,residual activity,[22],99%
same,residual activity,[23],100%
same,residual activity,[24],93%
same,residual activity,[25],100%
same,residual activity,[26],96%
same,residual activity,[27],96%
same,residual activity,[28],100%
same,residual activity,[29],99%
same,residual activity,[30],100%
same,residual activity,[31],92%
same,residual activity,[32],84%
same,residual activity,[33],86%
same,residual activity,[34],98%
same,residual activity,[35],100%
same,residual activity,[36],85%
same,residual activity,[37],91%
same,inhibition,[38],-2.19%
same,residual activity,[39],90%
same,residual activity,[40],94%
same,residual activity,[41],94%
same,residual activity,[42],86%
same,inhibition,[43],8.14%
